# Data taken from ChEMBL document CHEMBL1201862, “PubChem BioAssay data set” (2004).
# Activity calls are given as the source filed them.
# Tests used:
# Protein Tat = target: T1, Protein Tat (Human immunodeficiency virus type 1 group M subtype B (isolate HXB2)(HIV-1), UniProt P04608); assay type: functional;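 further: tat binding to TAR RNA read out by fluorescence polarization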
# T1 sequence (P04608 whole entry): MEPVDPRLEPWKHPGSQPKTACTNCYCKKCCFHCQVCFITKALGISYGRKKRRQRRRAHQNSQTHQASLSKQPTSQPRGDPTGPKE
# [1] = Luminescence Cell-Based Dose Response to Identify Activators of 5'UTR Stem-Loop Driven Prion Protein mRNA Translation in H4-C Neuroglioblastoma Cells. [Related pubchem assays: 1829 (Project Summary), 1814 (Primary HTS)]; assay type: functional
# [2] = Luminescence Cell-Based Dose Response HTS to Identify Activators of Luciferase Translation or Activity in H4 […] Cells. [Related pubchem assays: 1829 (Project Summary), 1814 (Primary HTS)]; assay type: functional
# [3] = Luminescence Cell-Based Dose Response to Identify Activators of Luciferase Translation or Activity in H4-C Neuroglioblastoma Cells. [Related pubchem assays: 1829 (Project Summary), 1814 (Primary HTS)]; assay type: functional
# [4] = Luminescence Cell-Based Dose Confirmation to Identify Activators of 5'UTR Stem-Loop Driven Alpha-Synuclein mRNA Translation in H4 Neuroglioblastoma Cells. [Related pubchem assays: 1829 (Project Summary), 1814 (Primary HTS)]; assay type: functional
# [5] = Luminescence Cell-Based Dose Confirmation HTS to Identify Activators of 5'UTR Stem-Loop Driven Alpha-Synuclein mRNA Translation in H4 Neuroglioblastoma Cells. [Related pubchem assays: 1829 (Project Summary), 1814 (Primary HTS)]; assay type: functional
# H4 = assay: Luminescence Cell-Based Dose Response HTS to Identify Activators of 5'UTR Stem-Loop Driven Prion Protein mRNA Translation in H4 Neuroglioblastoma Cells. [Related pubchem assays: 1829 (Project Summary), 1814 (Primary HTS)]; assay type: functional; conditions: Homo sapiens
# Paired box protein Pax-8 = Paired box protein Pax-8 (Homo sapiens, UniProt Q06710); assay: PAX8 transcriptional activity inhibition in RMG-I – RMG-I cells, luciferase, cherry-pick, dose response (AID 687027); assay type: functional, cell-based;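 further: luciferase reporter driven by Pax8 target thyroperoxidase promoter measured by SteadyGlo luminescence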
# [6] = OVCAR-3 cell viability loss – plate reader, dry powder samples, PAX8 inhibitor project, dose response (AID 743044); assay type: functional, cell-based
# [7] = IGROV1 cell killing – plate reader, dry powder samples, PAX8 inhibitor project, dose response (AID 743043); assay type: functional, cell-based; conditions: IGROV-1
# [8] = OVCAR8 cell viability loss – plate reader, dry powder samples, PAX8 project, dose response (AID 743197); assay type: functional, cell-based; conditions: OVCAR-8
# [9] = IC50 of insulin release inhibition, rat insulinoma INS-1E line, 5 mM glucose, cell-based (AID 1117331); assay type: functional
# [10] = glucagon-like peptide-1 release potency in STC-1, concentration-response, half-maximal inhibitory concentration in the STC-1 line (AID 1117345); assay type: functional, cell-based
# [11] = Potency on glucagon-like peptide 1 release, dose-response in NCI-H716 cell line, half maximal inhibitory concentration (AID 1117344); assay type: functional, cell-based
# BJ [12] = assay: BJ-TERT fibroblast viability loss – cell-based, RAS-independent, luminescence, dose response (AID 1933); assay type: functional; conditions: Homo sapiens
# BJ [13] = assay: cells; assay type: functional, cell-based; conditions: Homo sapiens
# [14] = target: Luciferin 4-monooxygenase (Photinus pyralis, UniProt P08659); assay: inhibition of purified Photinus pyralis luciferase – biochemical, luminescence, dose response (AID 1891)
# [15] = Luminescence Cell-Based Dose Confirmation HTS to Identify Inhibitors of Platelet Dense Granule Release. [Related pubchem assays: 1663 (Primary HTS), 1678 (Summary of Project)]; assay type: functional
# BJ [16] = assay: BJ-TERT-LT-ST fibroblast viability loss – cell-based, RAS-independent, luminescence, dose response (AID 1935); assay type: functional; conditions: Homo sapiens;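 further: BJ fibroblasts immortalized with TERT plus LT and ST oncogenes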
# [17] = DRD fibroblast viability loss – cell-based, non-viral oncogenic, luminescence, dose response (AID 1934); assay type: functional; conditions: Homo sapiens
# Protein skinhead-1 = target: T2, Protein skinhead-1 (Caenorhabditis elegans, UniProt P34707); assay type: functional
# T2 sequence (P34707 whole entry): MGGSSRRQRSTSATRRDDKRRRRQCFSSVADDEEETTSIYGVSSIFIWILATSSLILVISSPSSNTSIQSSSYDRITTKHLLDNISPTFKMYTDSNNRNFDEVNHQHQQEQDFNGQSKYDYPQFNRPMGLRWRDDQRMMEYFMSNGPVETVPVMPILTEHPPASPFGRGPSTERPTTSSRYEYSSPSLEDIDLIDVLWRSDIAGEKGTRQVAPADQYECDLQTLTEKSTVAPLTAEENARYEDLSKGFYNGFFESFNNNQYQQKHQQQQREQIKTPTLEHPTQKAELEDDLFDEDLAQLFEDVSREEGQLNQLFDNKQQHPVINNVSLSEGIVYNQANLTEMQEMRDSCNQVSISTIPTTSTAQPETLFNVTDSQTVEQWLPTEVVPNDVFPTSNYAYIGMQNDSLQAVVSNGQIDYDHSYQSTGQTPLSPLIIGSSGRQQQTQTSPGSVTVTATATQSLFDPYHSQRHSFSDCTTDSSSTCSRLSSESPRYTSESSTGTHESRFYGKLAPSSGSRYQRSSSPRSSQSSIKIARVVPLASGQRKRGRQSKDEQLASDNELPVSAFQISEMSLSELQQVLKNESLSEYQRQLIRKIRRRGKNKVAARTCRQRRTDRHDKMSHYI
# [18] = A549 cell cytotoxicity, dose response, cytotoxicity control, plate reader, cherry-pick, antagonist series (AID 743412); assay type: functional, cell-based
# [19] = toxicity toward HepG2 liver cells – cell-based, plate reader, cherry-pick, antagonist series, cytotoxicity control, dose response (AID 743416); assay type: functional
# [20] = blockers of bursicon-stimulated LGR2 cAMP reporter – cell-based, HEK293, CRE-luciferase reporter, cherry pick, set 2, dose response (AID 743343); assay type: functional;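 further: transfected cells were stimulated with diluted bursicon conditioned medium after compound addition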
# [21] = blockade of melanocortin 4 receptor signaling – cell-based, plate reader, cherry pick, counter-screen for LGR2 antagonist project, dose response (AID 743444); assay type: functional;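 further: transfected HEK 293 cells stimulated with alpha-MSH peptide; potency of inhibitors of the alpha-MSH evoked signal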
# [22] = viability loss in HEK293 cells – cell-based, plate reader, cherry-picked samples, cytotoxicity control, dose response (AID 743446); assay type: functional
# [23] = target: T3, Bifunctional protein GlmU (Mycobacterium tuberculosis, UniProt P9WMN3); assay: Inhibitors of Mycobacterial Glucosamine-1-phosphate acetyl transferase (GlmU). Secondary screen.; parameters: species or system Mycobacterium tuberculosis H37Rv
# T3 sequence (P9WMN3 whole entry): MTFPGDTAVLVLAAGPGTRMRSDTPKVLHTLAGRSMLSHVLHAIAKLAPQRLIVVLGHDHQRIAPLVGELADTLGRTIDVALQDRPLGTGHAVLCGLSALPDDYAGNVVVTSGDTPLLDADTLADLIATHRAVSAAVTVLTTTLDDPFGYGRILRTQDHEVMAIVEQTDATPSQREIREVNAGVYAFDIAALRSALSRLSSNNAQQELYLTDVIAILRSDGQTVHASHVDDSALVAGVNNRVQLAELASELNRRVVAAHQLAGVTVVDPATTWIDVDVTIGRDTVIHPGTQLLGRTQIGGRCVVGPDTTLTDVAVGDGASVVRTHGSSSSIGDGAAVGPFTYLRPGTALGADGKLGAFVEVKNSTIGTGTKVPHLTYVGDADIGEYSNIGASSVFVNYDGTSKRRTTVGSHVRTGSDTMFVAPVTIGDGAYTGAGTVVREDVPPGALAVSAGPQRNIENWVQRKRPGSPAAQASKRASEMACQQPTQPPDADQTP
# [24] = reduction of Shn3 3'UTR-driven luciferase in osteoblasts – cell-based, Clone20 osteoblasts, firefly luciferase, cherry-picked, dose response (AID 624132); assay type: functional;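 further: firefly luciferase luminescence from reporter carrying the Shn3 3'UTR in osteoblasts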
# [25] = loss of viability in HepG2 cells – cell-based, CellTiter-Glo, cherry-picked, cytotoxicity control for Shn3 inhibitor project, dose response (AID 624134); assay type: functional
# [26] = non-specific 3'UTR reporter inhibition in Clone20-Shn3RL – cell-based, Renilla luciferase, cherry-picked, counter-screen for Shn3 inhibitor project, dose response (AID 624133); assay type: functional
# Galanin receptor type 3 = target: T4, Galanin receptor type 3 (Homo sapiens, UniProt O60755); assay: Fluorescence-based cell-based primary high throughput dose response assay to identify antagonists of the Galanin Receptor 3 (GalR3).; assay type: functional
# T4 sequence (O60755 whole entry): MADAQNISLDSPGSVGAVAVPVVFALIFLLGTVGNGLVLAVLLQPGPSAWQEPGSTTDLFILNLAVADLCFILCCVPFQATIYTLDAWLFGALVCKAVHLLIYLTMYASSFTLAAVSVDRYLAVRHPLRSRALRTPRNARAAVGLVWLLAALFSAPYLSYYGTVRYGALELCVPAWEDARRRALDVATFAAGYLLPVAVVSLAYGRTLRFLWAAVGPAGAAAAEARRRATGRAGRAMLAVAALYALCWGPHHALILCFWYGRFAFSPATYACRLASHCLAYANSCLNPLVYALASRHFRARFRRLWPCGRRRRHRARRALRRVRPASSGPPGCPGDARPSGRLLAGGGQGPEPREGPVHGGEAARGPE
# cells = assay type: functional, cell-based; conditions: HEK-CNG
# Cytochrome P450 2C9 = Cytochrome P450 2C9 (Homo sapiens, UniProt P11712)
# Cytochrome P450 2C9, sequence (P11712 whole entry): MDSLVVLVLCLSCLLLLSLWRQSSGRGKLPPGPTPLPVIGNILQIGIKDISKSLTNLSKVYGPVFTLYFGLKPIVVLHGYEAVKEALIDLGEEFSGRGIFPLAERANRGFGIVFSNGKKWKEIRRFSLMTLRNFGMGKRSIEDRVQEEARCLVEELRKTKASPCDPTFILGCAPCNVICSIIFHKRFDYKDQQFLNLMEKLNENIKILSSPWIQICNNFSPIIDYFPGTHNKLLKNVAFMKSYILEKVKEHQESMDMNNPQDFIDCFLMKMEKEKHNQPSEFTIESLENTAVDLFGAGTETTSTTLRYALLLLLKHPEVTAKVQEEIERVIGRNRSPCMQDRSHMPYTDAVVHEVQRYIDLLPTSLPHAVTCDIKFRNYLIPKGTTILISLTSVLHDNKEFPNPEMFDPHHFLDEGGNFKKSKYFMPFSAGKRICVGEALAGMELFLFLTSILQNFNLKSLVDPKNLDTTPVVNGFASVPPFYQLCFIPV
# Paired box protein Pax-8, sequence (Q06710 whole entry): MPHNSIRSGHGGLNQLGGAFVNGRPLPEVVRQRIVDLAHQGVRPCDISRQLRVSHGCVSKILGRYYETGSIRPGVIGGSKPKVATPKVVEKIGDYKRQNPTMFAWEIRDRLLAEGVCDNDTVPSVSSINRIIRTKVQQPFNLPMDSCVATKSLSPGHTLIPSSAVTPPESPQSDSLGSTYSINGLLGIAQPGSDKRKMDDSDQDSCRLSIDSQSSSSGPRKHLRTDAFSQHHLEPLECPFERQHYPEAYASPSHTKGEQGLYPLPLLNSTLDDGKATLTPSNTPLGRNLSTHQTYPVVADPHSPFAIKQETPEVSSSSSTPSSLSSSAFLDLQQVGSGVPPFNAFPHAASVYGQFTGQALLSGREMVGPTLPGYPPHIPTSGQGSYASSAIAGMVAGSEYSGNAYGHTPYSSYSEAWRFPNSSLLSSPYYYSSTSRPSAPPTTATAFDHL
# Luciferin 4-monooxygenase, sequence (P08659 whole entry): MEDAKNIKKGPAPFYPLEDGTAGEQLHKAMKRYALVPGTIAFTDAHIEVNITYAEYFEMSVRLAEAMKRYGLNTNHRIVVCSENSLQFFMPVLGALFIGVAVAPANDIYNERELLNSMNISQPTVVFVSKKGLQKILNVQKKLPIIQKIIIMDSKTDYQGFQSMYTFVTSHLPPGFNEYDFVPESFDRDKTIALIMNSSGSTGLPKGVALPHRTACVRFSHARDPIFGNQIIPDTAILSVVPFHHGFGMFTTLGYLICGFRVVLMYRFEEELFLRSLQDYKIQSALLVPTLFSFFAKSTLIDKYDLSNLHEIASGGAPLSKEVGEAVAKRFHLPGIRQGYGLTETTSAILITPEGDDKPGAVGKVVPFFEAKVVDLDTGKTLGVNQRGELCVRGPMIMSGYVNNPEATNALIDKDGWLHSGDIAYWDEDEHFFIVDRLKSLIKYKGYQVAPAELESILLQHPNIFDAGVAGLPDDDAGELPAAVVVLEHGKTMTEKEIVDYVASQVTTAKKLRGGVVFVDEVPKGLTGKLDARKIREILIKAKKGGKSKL
compound,measurement,setting,value
COc1ccc2cc(C3C(C#N)=C(N)OC(C)=C3C(C)=O)c(Cl)nc2c1 (stereo not given),IC50,Protein Tat,> 100 µM (active)
CC(=O)c1cnc2cc(-c3ccc(C)cc3)nn2c1C,EC50,[1],0.223 µM (active)
same,EC50,[2],< 0.1 µM (active)
same,EC50,[3],0.319 µM (active)
same,EC50,[4],0.297 µM (active)
O=C(CSc1nnnn1C1CCCC1)N1CCCCC1,EC50,[1],0.537 µM (active)
same,EC50,[5],0.118 µM (active)
same,EC50,[2],< 0.1 µM (active)
same,EC50,H4,> 120 µM (not active)
same,EC50,[3],0.57 µM (active)
same,EC50,[4],0.524 µM (active)
C[C@@H]1CCCCO[C@@H](CN(C)Cc2ccc(C(F)(F)F)cc2)[C@@H](C)CN([C@@H](C)CO)C(=O)c2cc(NS(=O)(=O)c3ccc(Cl)cc3)ccc2O1,AC50,Paired box protein Pax-8,7.31 µM (active)
same,AC50,[6],27.4 µM (active)
same,AC50,[7],53.5 µM (active)
same,AC50,[8],43.7 µM (active)
FC(F)(F)C(F)(F)C(F)(F)C(F)(F)C(F)(F)C(F)(F)C(F)(F)C(F)(F)Br [PERFLUBRON],IC50,[9],> 33.3 µM (inactive)
same,IC50,[10],> 40 µM (inactive)
same,IC50,[11],> 40 µM (inactive)
CCCSc1ccc2nc(-c3ccccc3)cn2c1,EC50,BJ [12],22.8 µM (active)
same,EC50,BJ [13],19.6 µM (active)
same,EC50,[14],0.709 µM (active)
same,EC50,[15],2.14 µM (active)
same,EC50,BJ [16],> 150 µM (not active)
same,EC50,[17],20.9 µM (active)
same,IC50,Protein skinhead-1,> 100 µM (inactive)
same,AC50,[18],39.3 µM (active)
same,AC50,[19],20.7 µM (active)
same,AC50,[20],0.951 µM (active)
same,AC50,[21],1.2 µM (active)
same,AC50,[22],39.5 µM (active)
Fc1cc(Br)ccc1CBr,IC50,[9],> 33.3 µM (inactive)
same,IC50,[10],> 40 µM (inactive)
same,IC50,[11],> 40 µM (inactive)
N#C/C(=C\c1ccc(-c2ccc(C(=O)O)cc2)o1)c1nc2ccccc2[nH]1,IC50,[23],51.3 µM (active)
CCCCNc1c(-c2cccc(-c3ccc(OC)cc3)c2)nc2cc(C)ccn12,AC50,[24],12.1 µM (active)
same,AC50,[25],38.9 µM (active)
same,AC50,[26],10.6 µM (active)
same,AC50,[18],17.7 µM (active)
same,AC50,[19],21.9 µM (active)
same,AC50,[20],8.28 µM (active)
same,AC50,[21],10.9 µM (active)
same,AC50,[22],14.5 µM (active)
CCN1CCN(C(=O)CN(C)S(=O)(=O)c2ccc(OC)c(C)c2)CC1,IC50,Protein Tat,> 100 µM (active)
Cc1cc(NC(=O)Cc2ccccc2)c2ccccc2n1,IC50,Galanin receptor type 3,1.3 µM (active)
same,EC50,cells,> 29.9 µM (inactive)
Cc1ccc(S(=O)(=O)N2CC[C@@H]3[C@H](CO)N(C)c4ccc(-c5ccc(C#N)cc5)cc4[C@@H]32)cc1,AC50,Paired box protein Pax-8,7.55 µM (active)
same,AC50,[7],28.6 µM (active)
same,AC50,[8],48.4 µM (active)
COc1ccc2c(c1)C(=O)N(CCc1ccc(S(=O)(=O)NC(=O)NC3CCCCC3)cc1)C(=O)C2(C)C [GLIQUIDONE],IC50,[9],0.23 µM (active)
same,AC50,Cytochrome P450 2C9,12.6 µM (inconclusive)
O=C(NC1CCCCCCC1)NC1CCCCC1,EC50,[1],1.84 µM (active)
same,EC50,[2],5.81 µM (active)
same,EC50,H4,> 120 µM (not active)
same,EC50,[3],1.12 µM (active)
same,EC50,[4],> 12 µM (not active)
